Patent publication US8741871B2, “Trehalose compound, method for producing same, and pharmaceutical product containing the compound” (priority 2008, dated 2014)

Columns and labels:
rabbit neutrophils = assay type: cell-based
[1] = test system: Pseudomonas aeruginosa (Fhu-071115 strain); assay type: in vivo
Procedure: As a test compound, 1 mg of the compound synthesized by the method described in Production Example α-1 was weighed. An emulsion solution of the test compound was prepared in the same manner as described above.
Pseudomonas aeruginosa (Fhu-071115 strain) derived from patients was used, and it was prepared as follows.
L-broth was withdrawn with a 40-ml measuring pipette and was then added to a 200-ml flask, and the flask was then sealed with a sponge plug. At the same time, 5 ml of L-broth was added to each of two other screw-top test tubes. The thus prepared flask and screw-top test tubes were subjected to an autoclave at 121° C. for 20 minutes. After the L-broth medium had been cooled to a room temperature, Pseudomonas aeruginosa, which had been stored in an ultra low temperature freezer, was added into 40 ml of the L-broth the medium in a clean bench. The obtained mixture was shaken in an incubator overnight. Thereafter, the resultant was centrifuged at 9000 rpm for 15 minutes, and the supernatant was then removed. […] This process was carried out three times. Thereafter, 4.5 ml of sterilized normal saline solution was added to the resultant, and the mixture was then blended with the use of a Vortex mixer. The obtained solution was used as a strain stock solution. Using a 1000-fold diluted strain solution, the number of cells was counted with OneCell Counter. Thereafter, the strain stock solution was diluted to a desired concentration, and the thus diluted solution was then used in the subsequent test.
Mice were divided into two groups, and the following two types of experiments were carried out. • (A) The aforementioned emulsion solution containing the test compound (100 μg/mouse) was intraperitoneally administered to a group of three mice (ICR, 5-week-old). Three hours later, Pseudomonas aeruginosa (5.0×10^7 cells/mouse) was intraperitoneally administered to the mice. Thereafter, the condition of the mice was observed. (B) Pseudomonas aeruginosa (2.0×10^7 cells/mouse) was intraperitoneally administered to a group of three mice (ICR, 5-week-old). Three hours later, the aforementioned emulsion solution containing the test compound (100 μg/mouse) was intraperitoneally administered to the mice. Thereafter, the condition of the mice was observed.

[2] = test system: Welch bacillus toxin (recombinant α-toxin); settings: in vivo, ip
THP-1 cells = assay: Measurement of IL-8 released from THP-1 cells (ELISA); assay type: cell-based, human; settings: 50 μM test compound, two hours; FIG. 5
Procedure: An RPMI medium solution was prepared in the same manner as described above. Using this medium solution, an RPMI medium solution of the test compound was prepared as follows.
1.0 mg of the test compound was dissolved in 25 μl of DMSO by an ultrasonic treatment for approximately 1 minute. The thus obtained 40 mM test compound stock solution was added to 100 μl of RPMI medium to a final concentration of 50 μM. […] In the case of preparing the vehicle used as a control, instead of the 40 mM test compound stock solution, only the solvent was added in the same amount as described above to the RPMI medium, and it was then treated with ultrasonic wave for 5 seconds.
THP-1 cells (purchased from Cell Bank, RIKEN BioResource Center) were added to an RPMI medium to a cell density of 1.0×10^6 cells/100 μl and 100 μl each of the obtained solution was dispensed into a sterile Eppendorf tube. 100 μl of the RPMI medium solution of the test compound as prepared above was treated with ultrasonic wave for 5 seconds, and the total amount of the solution was then added to the Eppendorf tube, into which the cells had been dispensed. Two hours later, the reacted Eppendorf tube was centrifuged at 5000 rpm for 5 minutes, and the amount of IL-8 released into the supernatant was then measured using ELISA kit (human IL-8 ELISA kit (R & D Systems (trademark)).

Pseudomonas aeruginosa [3] = assay type: in vivo
Pseudomonas aeruginosa [4] = assay type: in vivo; settings: 100 μg/mouse i.p., twenty-four hours later infection; blood fifteen hours after bacteria; FIG. 19
Procedure: Twenty-four hours later, the mice were infected with 3.0×10^10 CFU/mL Pseudomonas aeruginosa. Fifteen hours after administration of the bacteria, blood was collected from the heart using an injection with a needle tip containing a small amount of heparin, and 200 μL of whole blood was then inoculated on a common agar medium. Thereafter, it was incubated in an incubator for 16 hours. Subsequently, the number of colonies on the medium was counted.
When there were a large number of cells, whole blood was diluted with a normal saline solution by a factor of 10, 100, 1000 or 10000, and the thus diluted solution was inoculated on a common agar medium.

[5] = test system: Welch bacillus (C. perfringens Type-A NCTC8237); assay type: in vivo; settings: pre-administration 100 μg/mouse i.p., twenty-four hours later 5.0×10^7 CFU/mL Welch bacillus i.p.; FIG. 16
[6] = test system: mouse intraperitoneal infiltrating cells; assay: Cell infiltration into mouse abdominal cavity (cell count, Giemsa staining, flow cytometry); settings: 100 μg/mouse i.p.
[7] = twenty-four hours after administration, flow cytometry

`CCCCCCCCCCC(CCCCCCCCCC)C(=O)OCC1O[C@H](O[C@H]2OC(COC(=O)C(CCCCCCCCCC)CCCCCCCCCC)[C@@H](O)C(O)C2O)C(O)C(O)[C@@H]1O` (stereo partly drawn) [Example 1, 6,6′-bis-O-(2-decyldodecanoyl)-α,α′-trehalose] was tested. Which “phagocytic ability of rabbit neutrophils, activity compared with TDCM” value (rabbit neutrophils) did it give?
Its value is “approximately 2 times”.

What about the “Number of surviving mice/number of treated mice, 2 hours later (Group A)” value ([1]; Group A: pre-administration 100 μg/mouse i.p., three hours later Pseudomonas aeruginosa 5.0×10^7 cells/mouse i.p., 2 hours later) of the same molecule?
Its value is 3/3.

And the “Number of surviving mice/number of treated mice, 4 hours later (Group A)” value ([1]; Group A: pre-administration 100 μg/mouse i.p., three hours later Pseudomonas aeruginosa 5.0×10^7 cells/mouse i.p., 4 hours later)?
Its value is 3/3.

What about the “Number of surviving mice/number of treated mice, 15 hours later (Group A)” value ([1]; Group A: pre-administration 100 μg/mouse i.p., three hours later Pseudomonas aeruginosa 5.0×10^7 cells/mouse i.p., 15 hours later) of the same molecule?
Its value is 2/3.

What about the “Number of surviving mice/number of treated mice, 24 hours later (Group A)” value ([1]; Group A: pre-administration 100 μg/mouse i.p., three hours later Pseudomonas aeruginosa 5.0×10^7 cells/mouse i.p., 24 hours later) of the same molecule?
Its value is 2/3.

And the “Number of surviving mice/number of treated mice, 48 hours later (Group A)” value ([1]; Group A: pre-administration 100 μg/mouse i.p., three hours later Pseudomonas aeruginosa 5.0×10^7 cells/mouse i.p., 48 hours later)?
The value was 2/3.

What about the “Number of surviving mice/number of treated mice, 2 hours later (Group B)” value ([1]; Group B: Pseudomonas aeruginosa 2.0×10^7 cells/mouse i.p., three hours later test compound 100 μg/mouse i.p., 2 hours later) of the same molecule?
The value was 3/3.

And the “Number of surviving mice/number of treated mice, 4 hours later (Group B)” value ([1]; Group B: Pseudomonas aeruginosa 2.0×10^7 cells/mouse i.p., three hours later test compound 100 μg/mouse i.p., 4 hours later)?
The value was 3/3.

And the “Number of surviving mice/number of treated mice, 15 hours later (Group B)” value ([1]; Group B: Pseudomonas aeruginosa 2.0×10^7 cells/mouse i.p., three hours later test compound 100 μg/mouse i.p., 15 hours later)?
Its value is 3/3.

What about the “Number of surviving mice/number of treated mice, 24 hours later (Group B)” value ([1]; Group B: Pseudomonas aeruginosa 2.0×10^7 cells/mouse i.p., three hours later test compound 100 μg/mouse i.p., 24 hours later) of the same molecule?
The value was 1/3.

And the “Number of surviving mice/number of treated mice, 48 hours later (Group B)” value ([1]; Group B: Pseudomonas aeruginosa 2.0×10^7 cells/mouse i.p., three hours later test compound 100 μg/mouse i.p., 48 hours later)?
Its value is 1/3.

And the “Number of surviving mice/number of treated mice, 2 hours later” value [2]?
Its value is 4/4.

And the “Number of surviving mice/number of treated mice, 6 hours later” value [2]?
The value was 4/4.

What about the “Number of surviving mice/number of treated mice, 12 hours later” value [2] of the same molecule?
The value was 4/4.

What about the “Number of surviving mice/number of treated mice, 24 hours later” value [2] of the same molecule?
Its value is 3/4.

And the “Number of surviving mice/number of treated mice, 48 hours later” value [2]?
The value was 3/4.

And the “IL-8 released from THP-1 cells, activity compared with TDCM” value (THP-1 cells)?
The value was “approximately 0.6 times”.

For `CCCCCCCCCC(CCCCCCCCC)CC(=O)OCC1O[C@H](O[C@H]2OC(COC(=O)CC(CCCCCCCCC)CCCCCCCCC)[C@@H](O)C(O)C2O)C(O)C(O)[C@@H]1O` (stereo partly drawn) [Example 9, 6,6′-bis-O-(3-nonyldodecanoyl)-α,α′-trehalose], which “lethality of Pseudomonas aeruginosa-infected mice, post-administration” value (Pseudomonas aeruginosa [3]; 100 μg/mouse i.p. three hours after infection with Pseudomonas aeruginosa, FIG. 18) is on record?
The value was “significantly suppressed”.

What about the “lethality of Pseudomonas aeruginosa-infected mice, pre-administration” value (Pseudomonas aeruginosa [3]; pre-administration 100 μg/mouse i.p., twenty-four hours later 3.0×10^10 CFU/mL Pseudomonas aeruginosa i.p., FIG. 17) of the same molecule?
The value was “significantly suppressed”.

What about the “Pseudomonas aeruginosa cells in mouse blood (colonies)” value (Pseudomonas aeruginosa [4]) of the same molecule?
Its value is “not detected”.

What about the “lethality of Welch bacillus-infected mice” value [5] of the same molecule?
Its value is “significantly suppressed”.

What about the “infiltrating cells in the abdominal cavity of mice over time” value ([6]; 2 hours or 24 hours after administration, FIG. 12) of the same molecule?
Its value is “an increase in infiltrating cells was observed time-dependently”.

What about the “abundance ratio of the CD11b-positive cells and CD4-positive cells compared with vehicle” value [6, 7] of the same molecule?
Its value is “hardly changed”.

What about the “total number of CD11b-positive cells, CD4-positive cells and CD8-positive cells compared with vehicle” value [6, 7] of the same molecule?
Its value is 15 to 20 times.

And the “abundance ratio of the CD8-positive cells compared with vehicle” value ([6]; twenty-four hours after administration, flow cytometry, FIGS. 13 to 15)?
The value was 2 to 3 times.

What about the “number of infiltrating cells in mouse abdominal cavity compared with vehicle” value ([6]; twenty-four hours later, FIG. 12) of the same molecule?
Its value is 15 to 20 times.

And the “IL-8 released from THP-1 cells, activity compared with TDCM” value (THP-1 cells)?
Its value is “approximately 0.8 times”.
